Measurements: US20220221458A1, “NOROVIRUS-BINDING PEPTIDE” (Kao Corporation, priority 2019, published 2022)

Target: GII.3 VLP
Assay: Calculation of KD value by bio-layer interferometry (BLI method)
Type: binding, norovirus
Settings: BLItz, GII.3 VLP 1 and 0.1 mg/mL; for Kd: biotinylated peptide 100 μM on SA chip, calculated from ka and kd; for ka / kd: peptide 100 μM on SA chip
Description: <Calculation of KD Value by Bio-Layer Interferometry: BLI Method>
The apparatus used was BLItz™ (manufactured by ForteBio). The tip of SA chip (manufactured by ForteBio) was kept in contact with purified water for 1 minute for hydration and was then kept in contact with a 1% BSA aqueous solution for 1 hour for blocking. The SA chip subjected to blocking treatment was set to the measuring unit of the BLItz™ main body, and measurement was performed according to the program shown in Table 14. The peptides of SEQ ID NOs: 1, 21, and 28 were used, and the concentration was adjusted to 100 μM. The concentration of the GII.3 VLP was adjusted to 1 and 0.1 mg/mL. The measurement data were analyzed using the attached software, and the KD value was calculated based on the Ka and Kd values.

| Substance | Kd [µM] | ka [M⁻¹ s⁻¹] | kd [s⁻¹] |
| --- | --- | --- | --- |
| VMMQCP [SEQ ID NO: 28] | 218 | 230 | 0.05 |
| GRRYYI [SEQ ID NO: 1] | 6.01 | 9070 | 0.0546 |
| GKFFCH [SEQ ID NO: 21] | 107 | 358 | 0.0382 |
